Measurements taken from patent US20230026808A1, “COMPOUNDS, COMPOSITIONS, AND METHODS FOR TREATING ISCHEMIA-REPERFUSION INJURY AND/OR LUNG INJURY” (YALE UNIVERSITY, priority 2019, published 2023).
Where two headings read alike, the source gives them in different places.

Tests used:
[1] = tested on: MAP3K3; experiment: Western analysis of MAP3K3 protein content induced by fMLP in neutrophils; assay type: cell-based; conditions: mouse neutrophils
Description: (§1) Mouse bone marrow neutrophils were isolated from long bones. After lysis of red blood cells (RBCs) with ACK buffer (155 mM NH4Cl, 10 mM KHCO3 and 127 μM EDTA), bone marrow cells were separated on a discontinuous Percoll gradient composed of 81%, 62%, and 45% Percoll. Neutrophils were collected at the interphase between 81% and 62% Percoll, washed in HBSS, and used for assays.

[2] = tested on: ERK phosphorylation; experiment: ERK phosphorylation in mouse neutrophils; assay type: cell-based
Description: as §1

[3] = tested on: p38 phosphorylation; experiment: p38 phosphorylation in mouse neutrophils; assay type: cell-based
Description: as §1

[4] = tested on: human neutrophils; experiment: ROS production assay in human neutrophils; assay type: cell-based; conditions: 100 nM fMLP
Description: For measurement of extracellular ROS release, isolated neutrophils were placed in the reaction buffer (0.25% BSA in HBSS with Ca^2+ and Mg^2+, 10 mM Isoluminol, 100 u/ml HRP) and stimulated with fMLP or PMA. For measurement of total ROS production, neutrophils were incubated with the reaction buffer (0.25% BSA in HBSS with Ca^2+ and Mg^2+, 10 mM Luminol, 100 u/ml HRP), followed with stimulations. Chemiluminescence was read continuously in a plate reader (Perkin Elmer). For reconstituted ROS production system in COS-7 cells, PMA (2 μM) was used for stimulation.
Buffy coat of human blood samples were subjected to neutrophil enrichment using the EasySep Human Neutrophil Enrichment Kit (Stemceli Technologies) according to manufacturer's protocol. Briefly, the depletion antibody cocktail was mixed with the buffy coat followed by incubation with magnetic particles. The EasySep Magnet was then used to immobilize unwanted cells as the label-free neutrophils were poured into another conical tube. Enriched neutrophils were pelleted and resuspended in an assay buffer (Hanks buffer with Ca^2+ and Mg^2+, 0.25% BSA) for ROS production assay or Western analysis.

[5] = tested on: murine hepatitis virus strain 1 (MHV-1); experiment: Pazopanib IV in the MHV-1 mouse model; assay type: in vivo, A/J mice
Description: The murine hepatitis virus strain 1 (MHV-1) model was adopted for the pharmacology study. All MHV-1-infected A/J mice developed progressive interstitial edema, neutrophil/macrophage infiltrates, and hyaline membranes, leading to the death of all mice. Two studies have been completed to date. In the first one, mice were administered a 3-dose regimen of the study intervention at 6, 21, and 32 hours after virus inoculation. In the second, mice were administered a 2-dose regimen at 24 and 33 hours after inoculation.
A/J mice, 8 to 10 weeks old, were anaesthetized by Ketamine/Xylazine (100 and 10 mg/kg) and were kept under anesthesia during the whole procedure using Ketamine/Xylazine. After being deeply anesthetized (assessed by applying a noxious stimulus, e.g., toe pinch, and observing no reflex response and no change in either the rate or character of respiration), mice received an intranasal inoculation of 5000 PFU MHV-1 in 20 μL Dulbecco's modified Eagle's medium. After the administration, the mice were monitored until their breathing gradually returned to normal. Then the mice were returned to the recovery cage on the heating pad and monitored for their anesthesia status. […] The green fluorescence of BAL was measured by the plate reader. BAL fluorescence intensities from pazopanib-treated mice were normalized to the intensities from vehicle-control-treated mice wherein higher intensity corresponds to greater permeability.
A/J mice, 8-10 weeks old, were anaesthetized by Ketamine/Xylazine (100 and 10 mg/kg) and were kept under anesthesia during the whole procedure using Ketamine/Xylazine. After being deeply anesthetized (assessed by applying a noxious stimulus, e.g., toe pinch, and observing no reflex response and no change in either the rate or character of respiration), mice received an intranasal inoculation of 6000 PFU MHV-1 in 20 μL Dulbecco's modified Eagle's medium. After the administration, the mice were monitored until their breathing gradually returned to normal. Then the mice were returned to the recovery cage on the heating pad and monitored for their anesthesia status. […]

[6] = in vivo; conditions: rat, iv; for AUC(0-inf) / Cmax: 10 mg/kg/day
[7] = in vivo; conditions: monkey, iv; for AUC(0-inf) / Cmax: 10 mg/kg/day

Structure (SMILES): Cc1ccc(Nc2nccc(N(C)c3ccc4c(C)n(C)nc4c3)n2)cc1S(N)(=O)=O [pazopanib, 5-((4-((2,3-dimethyl-2H-indazol-6-yl)(methyl)amino)pyrimidin-2-yl)amino)-2-methylbenzenesulfonamide]
- increase in MAP3K3 protein content induced by fMLP [1]: abrogated the increase in MAP3K3 protein content
- ERK phosphorylation [2]: did not affect
- p38 phosphorylation [3]: did not affect
- ROS production [4]: increases ROS production
- projected clinical efficacious dose ([5]; assuming 70 kg human): approximately 16.8 mg
- human equivalent dose of efficacious dose ([5]; from 3 mg/kg in mouse): 0.24 mg/kg
- efficacious dose ([5]; mouse coronavirus-induced lung injury model): approximately 3 mg/kg
- margin of safety based on AUC values (2-week rat and monkey studies): < 10 fold
- safety margin based on Cmax (female monkeys): 23 fold
- safety margin based on Cmax (male monkeys): 25 fold
- HED for 70 kg human (monkey, 2-week study): 224 mg
- Margin of safety (monkey, 5 days, IV 20 minute infusion, clinical dose 20 mg/day or 0.29 mg/kg): 33.1X
- t1/2 (monkeys): a few hours
- AUC(0-inf) ([6]; female): 276 µg·h/mL
- Cmax ([6]; female): 47 µg/mL
- AUC(0-inf) ([6]; male): 278 µg·h/mL
- Cmax ([6]; male): 55 µg/mL
- NOAEL at 2 weeks [6]: 10 mg/kg/day
- NOAEL at 14 days [6]: 10 mg/kg
- AUC(0-inf) ([7]; female): 167 µg·h/mL
- Cmax ([7]; female): 80 µg/mL
- AUC(0-inf) ([7]; male): 143 µg·h/mL
- Cmax ([7]; male): 85 µg/mL
- NOAEL at 2 weeks ([7]; NOAEL (no observed adverse effect level), monkeys, 2-week GLP IV infusion (20-minute)): 10 mg/kg/day
- NOAEL at 5 days ([7]; NOAEL, 5 days, IV 20 minute infusion): 30 mg/kg
- NOAEL at 14 days ([7]; NOAEL, 14 days, IV 20 minute infusion): 10 mg/kg
